Results reported in patent US6737383B1, “Herbicidal oxadiazolidines” (priority 1999, dated 2004).

Legend:
lambsquarters [1] = experiment: Test E lambsquarters; format: in vivo, Chenopodium album; settings: Preemergence
galium = experiment: Test E galium; format: in vivo, Galium aparine; settings: Postemergence; for Plant response rating, Galium: 0 to 100 scale
Summary of the method: (§1)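 Each compound, carried in a non-phytotoxic solvent blend including surfactant, was applied (postemergence: over the top of young plants at 1- to 4-leaf stage). Plants stayed in the greenhouse about 21 to 28 days before visual comparison with untreated controls.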

black nightshade = experiment: Test E black nightshade; format: in vivo, Solanum nigra; settings: Postemergence; for Plant response rating, Blk nightshade: 0 to 100 scale
Summary of the method: as §1

scentless chamomile = experiment: Test E scentless chamomile; format: in vivo, Matricaria inodora; settings: Preemergence
purple nutsedge = experiment: Test D purple nutsedge; format: in vivo, Cyperus rotundus; settings: Postemergence, 0 to 100 scale; for Purple nutsedge plant response rating: 0 no injury, 100 complete control
pitted morningglory = experiment: Test D pitted morningglory; format: in vivo, Ipomoea lacunosa; settings: Postemergence, 0 to 100 scale
common ragweed = experiment: Test D common ragweed; format: in vivo, Ambrosia elatior; settings: Postemergence, 0 to 100 scale
spring wheat = experiment: Test E spring wheat; format: in vivo, Triticum aestivum; settings: Postemergence; for Plant response rating, Spring Wheat: 0 to 100 scale
Summary of the method: as §1

jointed goatgrass = experiment: Test E jointed goatgrass; format: in vivo, Aegilops cylindrica; settings: Postemergence; for Plant response rating, Jointed goatgra: 0 to 100 scale
Summary of the method: as §1

tall mallow = experiment: Test D tall mallow; format: in vivo, Malva sylvestris; settings: Postemergence, 0 to 100 scale; for Tall Mallow plant response rating: 0 no injury, 100 complete control
chickweed = experiment: Test E chickweed; format: in vivo, Stellaria media; settings: Preemergence
wild oat = experiment: Test E wild oat; format: in vivo, Avena fatua; settings: Postemergence; for Plant response rating, Wild oat: 0 to 100 scale
Summary of the method: as §1

kochia = experiment: Test E kochia; format: in vivo, Kochia scoparia; settings: Postemergence; for Plant response rating, Kochia: 0 to 100 scale
Summary of the method: as §1

downy brome = experiment: Test E downy brome; format: in vivo, Bromus tectorum; settings: Preemergence
lambsquarters [2] = experiment: Test E lambsquarters; format: in vivo, Chenopodium album; settings: Postemergence; for Plant response rating Lambsquarters: 0 to 100 scale
Summary of the method: as §1

blackgrass = experiment: Test E blackgrass; format: in vivo, Alopecurus myosuroides; settings: Postemergence; for Plant response rating, Blackgrass: 0 to 100 scale
Summary of the method: as §1

common groundsel = experiment: Test D common groundsel; format: in vivo, Senecio vulgaris; settings: Postemergence, 0 to 100 scale
littleseed canarygrass = experiment: Test E littleseed canarygrass; format: in vivo, Phalaris minor; settings: Preemergence
spring barley = experiment: Test E spring barley; format: in vivo, Hordeum vulgare; settings: Postemergence; for Plant response rating, Spring Barley: 0 to 100 scale
Summary of the method: as §1

deadnettle = experiment: Test E deadnettle; format: in vivo, Lamium amplexicaule; settings: Postemergence, 0 to 100 scale
Summary of the method: as §1

annual bluegrass = experiment: Test E annual bluegrass; format: in vivo, Poa annua; settings: Postemergence; for Plant response rating, Annual bluegras: 0 to 100 scale
Summary of the method: as §1

sugar beet = experiment: Test E sugar beet; format: in vivo, Beta vulgaris; settings: Postemergence; for Plant response rating, Sugar beet: 0 to 100 scale
Summary of the method: as §1

itchgrass = experiment: Test D itchgrass; format: in vivo, Rottboellia exaltata; settings: Postemergence, 0 to 100 scale
[3] = Rate 125 g/ha, 0 to 100 scale (0 no effect, 100 complete control)
[4] = Rate 500 g/ha, 0 to 100 scale where 0 is no effect and 100 is complete control
[5] = Rate 500 g/ha, 0 no effect, 100 complete control
[6] = Rate 250 g/ha, 0 to 100 scale where 0 is no effect and 100 is complete control
[7] = Rate 64 g/ha, 0 no injury, 100 complete control
[8] = Rate 125 g/ha, 0 no injury, 100 complete control

## C=CCn1c(=O)on(C(=O)N(c2ccc(F)cc2)C(C)C)c1=O [Compound 146]
Lambsquarters [1]; [3]
  Plant response rating Lambsquarters: 100
Lambsquarters [1]; Rate 250 g/ha
  Lambsquarters plant response rating (0 to 100 scale): 100
Lambsquarters [1]; [4]
  Plant response rating Lambsquarters: 100
galium; Rate 62 g/ha
  Plant response rating, Galium: 50
galium; Rate 125 g/ha
  Plant response rating, Galium: 0
galium; [5]
  Plant response rating, Galium: 60
galium; [6]
  Galium plant response rating: 15
Black nightshade; Rate 62 g/ha
  Plant response rating, Blk nightshade: 50
Black nightshade; Rate 125 g/ha
  Plant response rating, Blk nightshade: 50
Black nightshade; [5]
  Plant response rating, Blk nightshade: 70
Black nightshade; [6]
  Blk nightshade plant response rating: 40
Scentless chamomile; [3]
  Plant response rating, Scentless chamo: 15
Scentless chamomile; Rate 250 g/ha
  Scentless chamo plant response rating (0 to 100 scale): 100
Scentless chamomile; [4]
  Plant response rating, Scentless chamo: 80
Purple nutsedge; Rate 64 g/ha
  Purple nutsedge plant response rating: 0
Purple nutsedge; Rate 125 g/ha
  Purple nutsedge plant response rating: 0
Purple nutsedge; Rate 250 g/ha
  Plant response rating, Purple nutsedge: 0
Purple nutsedge; Rate 500 g/ha
  Plant response rating, Purple nutsedge: 35
Pitted morningglory; [7]
  Plant response rating, P. morninglory: 30
Pitted morningglory; [8]
  Plant response rating, P. morninglory: 40
Pitted morningglory; Rate 250 g/ha
  Plant response rating, P. morninglory: 50
Pitted morningglory; Rate 500 g/ha
  Plant response rating, P. morninglory: 65
Common ragweed; [7]
  Plant response rating, C. ragweed: 0
Common ragweed; [8]
  Plant response rating, C. ragweed: 0
Common ragweed; Rate 250 g/ha
  Plant response rating, C. ragweed: 30
Common ragweed; Rate 500 g/ha
  Plant response rating, C. ragweed: 40
Spring wheat; Rate 62 g/ha
  Plant response rating, Spring Wheat: 10
Spring wheat; Rate 125 g/ha
  Plant response rating, Spring Wheat: 10
Spring wheat; [5]
  Plant response rating, Spring Wheat: 20
Spring wheat; [6]
  Spring Wheat plant response rating: 10
Jointed goatgrass; Rate 62 g/ha
  Plant response rating, Jointed goatgra: 55
Jointed goatgrass; Rate 125 g/ha
  Plant response rating, Jointed goatgra: 15
Jointed goatgrass; [5]
  Plant response rating, Jointed goatgra: 40
Jointed goatgrass; [6]
  Jointed goatgra plant response rating: 10
Tall mallow; Rate 64 g/ha
  Tall Mallow plant response rating: 0
Tall mallow; Rate 125 g/ha
  Tall Mallow plant response rating: 0
Tall mallow; Rate 250 g/ha
  Plant response rating, Tall Mallow: 0
Tall mallow; Rate 500 g/ha
  Plant response rating, Tall Mallow: 50
chickweed; [3]
  Plant response rating, Chickweed: 30
chickweed; Rate 250 g/ha
  Chickweed plant response rating (0 to 100 scale): 80
chickweed; [4]
  Plant response rating, Chickweed: 70
Wild oat; Rate 62 g/ha
  Plant response rating, Wild oat: 20
Wild oat; Rate 125 g/ha
  Plant response rating, Wild oat: 5
Wild oat; [5]
  Plant response rating, Wild oat: 10
Wild oat; [6]
  Wild oat plant response rating: 0
kochia; Rate 62 g/ha
  Plant response rating, Kochia: 30
kochia; Rate 125 g/ha
  Plant response rating, Kochia: 10
kochia; [5]
  Plant response rating, Kochia: 40
kochia; [6]
  Kochia plant response rating: 10
Downy brome; [3]
  Plant response rating, Downy brome: 60
Downy brome; Rate 250 g/ha
  Downy brome plant response rating (0 to 100 scale): 0
Downy brome; [4]
  Plant response rating, Downy brome: 60
Lambsquarters [2]; Rate 62 g/ha
  Plant response rating Lambsquarters: 50
Lambsquarters [2]; Rate 125 g/ha
  Plant response rating Lambsquarters: 20
Lambsquarters [2]; [5]
  Plant response rating Lambsquarters: 50
Lambsquarters [2]; [6]
  Lambsquarters plant response rating: 10
blackgrass; Rate 62 g/ha
  Plant response rating, Blackgrass: 70
blackgrass; Rate 125 g/ha
  Plant response rating, Blackgrass: 25
blackgrass; [5]
  Plant response rating, Blackgrass: 40
blackgrass; [6]
  Blackgrass plant response rating: 15
Common groundsel; [7]
  Plant response rating, Com. groundsel: 0
Common groundsel; [8]
  Plant response rating, Com. groundsel: 0
Common groundsel; Rate 250 g/ha
  Plant response rating, Com. groundsel: 0
Common groundsel; Rate 500 g/ha
  Plant response rating, Com. groundsel: 0
Littleseed canarygrass; [3]
  Plant response rating, LS canarygrass: 40
Littleseed canarygrass; Rate 250 g/ha
  LS canarygrass plant response rating (0 to 100 scale): 75
Littleseed canarygrass; [4]
  Plant response rating, LS canarygrass: 85
Spring barley; Rate 62 g/ha
  Plant response rating, Spring Barley: 20
Spring barley; Rate 125 g/ha
  Plant response rating, Spring Barley: 10
Spring barley; [5]
  Plant response rating, Spring Barley: 20
Spring barley; [6]
  Spring Barley plant response rating: 10
deadnettle; Rate 62 g/ha
  Plant response rating, Deadnettle: 50
deadnettle; Rate 125 g/ha
  Plant response rating, Deadnettle: 10
deadnettle; [5]
  Plant response rating, Deadnettle: 20
Annual bluegrass; Rate 62 g/ha
  Plant response rating, Annual bluegras: 85
Annual bluegrass; Rate 125 g/ha
  Plant response rating, Annual bluegras: 10
Annual bluegrass; [5]
  Plant response rating, Annual bluegras: 65
Annual bluegrass; [6]
  Annual bluegras plant response rating: 10
Sugar beet; Rate 62 g/ha
  Plant response rating, Sugar beet: 0
Sugar beet; Rate 125 g/ha
  Plant response rating, Sugar beet: 20
Sugar beet; [5]
  Plant response rating, Sugar beet: 40
Sugar beet; [6]
  Sugar beet plant response rating: 30
itchgrass; [7]
  Plant response rating, Itchgrass: 30
itchgrass; [8]
  Plant response rating, Itchgrass: 30
itchgrass; Rate 250 g/ha
  Plant response rating, Itchgrass: 50
itchgrass; Rate 500 g/ha
  Plant response rating, Itchgrass: 65
